Experimental data published in PubChem BioAssay (NCI).
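Test compounds were applied to cells in 96-well plates for 48 hours at 5 doses. Here, GI50 denotes the concentration required for 50% inhibition of growth. TGI is the concentration that stops growth completely.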

Tests used:
Assay in all cases: NCI anticancer screen, dose series, 48 h
SF-539 CNS = tested on: SF-539 CNS
HOP-62 NSCLC = tested on: HOP-62 NSCLC
SN12C renal = tested on: SN12C renal
MDA-MB-231 breast = tested on: MDA-MB-231 breast
OVCAR-8 ovarian = tested on: OVCAR-8 ovarian
UO-31 renal = tested on: UO-31 renal
TK-10 renal = tested on: TK-10 renal
HCT-116 colon = tested on: HCT-116 colon
COLO 205 colon = tested on: COLO 205 colon
A498 renal = tested on: A498 renal
LOX IMVI melanoma = tested on: LOX IMVI melanoma
DU-145 prostate = tested on: DU-145 prostate
RPMI-8226 leukemia = tested on: RPMI-8226 leukemia
MOLT-4 leukemia = tested on: MOLT-4 leukemia
KM12 colon = tested on: KM12 colon
MDA-MB-435 = tested on: MDA-MB-435
EKVX NSCLC = tested on: EKVX NSCLC
HS 578T breast = tested on: HS 578T breast
SW-620 colon = tested on: SW-620 colon
RXF 393 renal = tested on: RXF 393 renal
BT-549 breast = tested on: BT-549 breast
HL-60(TB) leukemia = tested on: HL-60(TB) leukemia
SK-MEL-2 melanoma = tested on: SK-MEL-2 melanoma
IGROV1 ovarian = tested on: IGROV1 ovarian
M14 melanoma = tested on: M14 melanoma
PC-3 prostate = tested on: PC-3 prostate
HOP-92 NSCLC = tested on: HOP-92 NSCLC
786-0 renal = tested on: 786-0 renal
MCF7 breast = tested on: MCF7 breast
SR leukemia = tested on: SR leukemia
OVCAR-3 ovarian = tested on: OVCAR-3 ovarian
NCI-H226 lung = tested on: NCI-H226 lung
T-47D breast = tested on: T-47D breast
SF-295 CNS = tested on: SF-295 CNS
A549 NSCLC = tested on: A549 NSCLC
NCI-H23 lung = tested on: NCI-H23 lung
MALME-3M melanoma = tested on: MALME-3M melanoma
SK-MEL-5 melanoma = tested on: SK-MEL-5 melanoma
SNB-75 CNS = tested on: SNB-75 CNS
OVCAR-4 ovarian = tested on: OVCAR-4 ovarian
SNB-19 CNS = tested on: SNB-19 CNS
NCI-H460 lung = tested on: NCI-H460 lung
SF-268 CNS = tested on: SF-268 CNS
OVCAR-5 ovarian = tested on: OVCAR-5 ovarian
HCT-15 colon = tested on: HCT-15 colon
CAKI-1 renal = tested on: CAKI-1 renal
HT29 colon = tested on: HT29 colon
UACC-62 melanoma = tested on: UACC-62 melanoma
U251 CNS = tested on: U251 CNS
NCI/ADR-RES ovarian = tested on: NCI/ADR-RES ovarian
UACC-257 melanoma = tested on: UACC-257 melanoma
HCC-2998 colon = tested on: HCC-2998 colon
SK-OV-3 ovarian = tested on: SK-OV-3 ovarian
SK-MEL-28 melanoma = tested on: SK-MEL-28 melanoma
NCI-H522 lung = tested on: NCI-H522 lung
ACHN renal = tested on: ACHN renal

COC(=O)[C@@H](NC(=O)NC(=O)NC(=O)CI)C(C)C
GI50 (SF-539 CNS): 3.92 µM | TGI (SF-539 CNS): 14.8 µM | GI50 (HOP-62 NSCLC): 18.3 µM | TGI (HOP-62 NSCLC): 33.7 µM | GI50 (SN12C renal): 5.46 µM | TGI (SN12C renal): 25.7 µM | GI50 (MDA-MB-231 breast): 17 µM | TGI (MDA-MB-231 breast): 34.9 µM | GI50 (OVCAR-8 ovarian): 18.8 µM | TGI (OVCAR-8 ovarian): 41.4 µM | GI50 (UO-31 renal): 1.67 µM | TGI (UO-31 renal): 3.2 µM | GI50 (TK-10 renal): 7.65 µM | TGI (TK-10 renal): 20.5 µM | GI50 (HCT-116 colon): 12.2 µM | TGI (HCT-116 colon): 24.6 µM | GI50 (COLO 205 colon): 1.97 µM | TGI (COLO 205 colon): 4.01 µM | GI50 (A498 renal): 16.7 µM | TGI (A498 renal): 30.9 µM | GI50 (LOX IMVI melanoma): 1.69 µM | TGI (LOX IMVI melanoma): 3.33 µM | GI50 (DU-145 prostate): 16.4 µM | TGI (DU-145 prostate): 29.9 µM | GI50 (RPMI-8226 leukemia): 4.83 µM | TGI (RPMI-8226 leukemia): 26.1 µM | GI50 (MOLT-4 leukemia): 2.58 µM | TGI (MOLT-4 leukemia): 7.05 µM | GI50 (KM12 colon): 17.4 µM | TGI (KM12 colon): 33.8 µM | GI50 (MDA-MB-435): 9.97 µM | TGI (MDA-MB-435): 21.7 µM | GI50 (EKVX NSCLC): 17.2 µM | TGI (EKVX NSCLC): 31.4 µM | GI50 (HS 578T breast): 26.4 µM | TGI (HS 578T breast): 74.6 µM | GI50 (SW-620 colon): 2.04 µM | TGI (SW-620 colon): 4.19 µM | GI50 (RXF 393 renal): 6.35 µM | TGI (RXF 393 renal): 18.8 µM | GI50 (BT-549 breast): 11.5 µM | TGI (BT-549 breast): 23.7 µM | GI50 (HL-60(TB) leukemia): 1.7 µM | TGI (HL-60(TB) leukemia): 3.86 µM | GI50 (SK-MEL-2 melanoma): 18.9 µM | TGI (SK-MEL-2 melanoma): 36.5 µM | GI50 (IGROV1 ovarian): 3.87 µM | TGI (IGROV1 ovarian): 13.9 µM | GI50 (M14 melanoma): 3.34 µM | TGI (M14 melanoma): 13.1 µM | GI50 (PC-3 prostate): 16.3 µM | TGI (PC-3 prostate): 30.7 µM | GI50 (HOP-92 NSCLC): 2.7 µM | TGI (HOP-92 NSCLC): 7.36 µM | GI50 (786-0 renal): 11.4 µM | TGI (786-0 renal): 23.5 µM | GI50 (MCF7 breast): 3.03 µM | TGI (MCF7 breast): 12.7 µM | GI50 (SR leukemia): 1.76 µM | TGI (SR leukemia): 5.64 µM | GI50 (OVCAR-3 ovarian): 2.23 µM | TGI (OVCAR-3 ovarian): 4.78 µM | GI50 (NCI-H226 lung): 16.2 µM | TGI (NCI-H226 lung): 38.4 µM | GI50 (T-47D breast): 6 µM | TGI (T-47D breast): 34.5 µM | GI50 (SF-295 CNS): 17.9 µM | TGI (SF-295 CNS): 40.6 µM | GI50 (A549 NSCLC): 22.4 µM | TGI (A549 NSCLC): 41.5 µM | GI50 (NCI-H23 lung): 16.1 µM | TGI (NCI-H23 lung): 33.8 µM | GI50 (MALME-3M melanoma): 1.63 µM | TGI (MALME-3M melanoma): 3.64 µM | GI50 (SK-MEL-5 melanoma): 17.4 µM | TGI (SK-MEL-5 melanoma): 31.6 µM | GI50 (SNB-75 CNS): 13.2 µM | TGI (SNB-75 CNS): 26.8 µM | GI50 (OVCAR-4 ovarian): 3.19 µM | TGI (OVCAR-4 ovarian): 13.7 µM | GI50 (SNB-19 CNS): 18.8 µM | TGI (SNB-19 CNS): 37.7 µM | GI50 (NCI-H460 lung): 18.9 µM | TGI (NCI-H460 lung): 38.2 µM | GI50 (SF-268 CNS): 15.1 µM | TGI (SF-268 CNS): 32.7 µM | GI50 (OVCAR-5 ovarian): 13.2 µM | TGI (OVCAR-5 ovarian): 29.7 µM | GI50 (HCT-15 colon): 1.66 µM | TGI (HCT-15 colon): 3.16 µM | GI50 (CAKI-1 renal): 1.41 µM | TGI (CAKI-1 renal): 2.73 µM | GI50 (HT29 colon): 2.01 µM | TGI (HT29 colon): 4.03 µM | GI50 (UACC-62 melanoma): 14.4 µM | TGI (UACC-62 melanoma): 29.9 µM | GI50 (U251 CNS): 17.3 µM | TGI (U251 CNS): 31.1 µM | GI50 (NCI/ADR-RES ovarian): 25.4 µM | TGI (NCI/ADR-RES ovarian): 73 µM | GI50 (UACC-257 melanoma): 13.6 µM | TGI (UACC-257 melanoma): 27.8 µM | GI50 (HCC-2998 colon): 13.4 µM | TGI (HCC-2998 colon): 27.4 µM | GI50 (SK-OV-3 ovarian): 18.3 µM | TGI (SK-OV-3 ovarian): 33 µM | GI50 (SK-MEL-28 melanoma): 1.88 µM | TGI (SK-MEL-28 melanoma): 3.85 µM | GI50 (NCI-H522 lung): 1.69 µM | TGI (NCI-H522 lung): 3.31 µM | GI50 (ACHN renal): 1.81 µM | TGI (ACHN renal): 3.47 µM
